These results are taken from a melting point compilation (Tetko et al.; mined from patent text by program, amines drawn as free bases though some values may be those of a salt).

Turning to `CCC(C)n1c(=O)ccc2cnc(Nc3ccccc3)nc21` (configuration not stated), the melting point (as a rule, the temperature of the solid-liquid transition) lay within 155 to 156 °C. On to `CC(C)n1nc(-c2sc(NC(=O)c3ccc(CN4CCOCC4)cc3)nc2-c2ccccc2)ccc1=O`, for which the melting point was in the range of 222 to 224 °C.

Consider `Cc1cc(O)c([N+](=O)[O-])cc1C(=O)c1c(Cl)cccc1Cl`, for which the melting point amounted to 170 °C. As for `CCC1=C(c2cccc(C(F)(F)F)c2)n2ncc(C#N)c2N(C(=O)CCl)C1`, the figure is 150 to 152 °C; as for `Cc1nn(C)cc1C(=O)NC(C#N)c1ccco1` (configuration not stated), 122 °C; as for `CCC(O)c1cc(-c2ccccc2)no1` (configuration not stated), 101 to 102 °C. Turning to `Cc1onc(NS(=O)(=O)c2ccccc2)c1Cl`, the melting point was 139 to 141 °C. As for `CP(=O)(O)CNC(=O)OCc1ccccc1`, the figure is 118 to 119 °C. As for `BrC(c1ccccc1)(c1ccccc1)C1(c2ccccc2)OCCO1`, the figure is 206 °C; as for `C1=C(c2cc3ccccc3[nH]2)CCN(CCC2Cc3ccccc3C2)C1`, 175 to 176 °C. As for `COCc1cc(=O)c(Oc2ccc(F)cc2F)c(-c2ccc(S(C)(=O)=O)cc2)o1`, the figure is 124 °C; as for `Cn1cc(C2=C(c3c4n(c5ccccc35)CCC(N=C=S)C4)C(=O)NC2=O)c2ccccc21` (configuration not stated), 285 to 287 °C; as for `CC(=O)c1ccc(CCNS(C)(=O)=O)cc1`, 80 to 81 °C. The compound `CC(C)CNc1c([N+](=O)[O-])cnc2ccccc12` came in with a melting point of 114 to 118 °C. The result for `COC(=O)c1cnc(S)n1Cc1cc(F)cc(F)c1` reads 177 to 178 °C; that for `CCOC(=O)c1cc2c(CC)nc(CC)cc2n(Cc2ccc(-c3ccccc3-c3nnn(C(c4ccccc4)(c4ccccc4)c4ccccc4)n3)cc2)c1=O`, 110 to 112 °C. `COc1cc(Nc2c(C#N)cnc3cc(C#CCCN(C)C)c(OC)cc23)c(Cl)cc1Cl` registered a melting point of 177 to 179 °C.

`CCN(CC)S(=O)(=O)c1cc(Cl)c(Cl)c(Cl)c1S` registered a melting point of 96 to 99 °C. As for `Cn1cnc(COc2nc3c(cc2C(C)(C)C)nnn3-c2cc(F)ccc2F)n1`, the figure is 154 to 157 °C; as for `CCOCC1OC(n2cnc3c(N)nc(Cl)nc32)C(O)C1O` (configuration not stated), 117 to 119 °C; as for `COc1cc2c(cc1Nc1ncc(Cl)c(N[C@@H]3CCCC[C@H]3NS(C)(=O)=O)n1)CCNC(=O)C2`, 109 to 115 °C. The result for `Cc1ccc(-c2nnn(C(c3ccccc3)(c3ccccc3)c3ccccc3)n2)cc1` reads 172 to 175 °C; that for `CC(C)(C)[Si](C)(C)OCc1cccc(-c2ccc3nc(Cl)cn3c2)c1`, 120 to 123 °C; that for `O=CN1CCN(c2ccnc(Cl)n2)CC1`, 125 to 126 °C. The result for `CCOC(=O)/C=C\n1c(=O)n2nc(C(=O)OCC)cc2c2ccc(Cl)cc21` reads 215 to 217 °C; that for `COc1ccc(Nc2cccc3c2C(=O)N(C2CCC(=O)NC2=O)C3=O)cc1OC` (configuration not stated), 215 to 217 °C; that for `CCCCCCCCS(=O)Cc1c(C)c(O)c(C)c(CS(=O)CCCCCCCC)c1C` (configuration not stated), 175 °C. `COc1ccc(CSc2cc(C(=O)Nc3ccc(C#N)cc3)ccn2)cc1` showed a melting point of 201 to 203 °C. The result for `CC(=O)c1cc(CO)c(O)cc1O` reads 151 to 152 °C; that for `COc1nc2ncnn2c(N2CCC(C)CC2)c1-c1ccc(F)cc1Cl`, 186 °C; that for `CC(=O)c1cn(C)cc(-c2cccc(Cl)c2)c1=O`, 175 to 177 °C. As for `COc1cc(C)c2c(c1OC)CCC1C(=O)NC(=O)C21` (configuration not stated), the figure is 179 to 181 °C. As for `COC(=O)C(Cc1ccccc1)Oc1ccc(-c2ccc(-c3c(Cc4ccccc4)oc4ccccc34)cc2)cc1` (configuration not stated), the figure is 67 to 69 °C. `CCCC(=O)Nc1c(C(=O)c2cccc(Cl)c2)[nH]c2cc(Cl)ccc12` came in with a melting point of 157 to 158 °C. For the compound `Brc1cnc(SCc2cccs2)nc1`, the melting point came out at 87 °C. `c1ccc(Cn2ncc3c2Cc2cn[nH]c2-3)cc1` gave a melting point of 61 to 72 °C. As for `Cc1nc2cc(C)c(OCC(C)(C)CS(N)(=O)=O)nn2n1`, the figure is 217 to 218 °C. As for `O=[N+]([O-])c1c(Br)nn(Cc2ccc(Cl)cc2)c1Br`, the figure is 109 °C; as for `C[C@H](O)CCC[C@H](O)CCCCCc1cccc(O)c1C(=O)O`, 83 to 84 °C; as for `COc1ccc2cc(-c3nc(-c4ccccc4)no3)c(=O)oc2c1`, 215 °C. The result for `CCOc1ccc(Cc2cn(C3OC(COC(C)=O)C(OC(C)=O)C(OC(C)=O)C3OC(C)=O)c3cccc(F)c23)cc1` (configuration not stated) reads 146 to 148 °C; that for `COc1ccccc1N1CCN(CCN(C(=O)C2CCCCC2)c2ccccc2[N+](=O)[O-])CC1`, 119 to 121 °C.

Compound `Clc1nc(-c2cccnc2)sc1-c1cccnc1` returned a melting point of 145 to 147 °C.

The compound `CC1(C)CCC(C)(C)c2c(OS(=O)(=O)C(F)(F)F)cc(-c3ccccc3)cc21` showed a melting point of 110 °C. For `COc1c(N)cc(Cl)c(OC)c1[N+](=O)[O-]`, the melting point is 68 °C. The result for `COC(=O)c1cncc(-c2ccc(OC)c(N)c2)c1` reads 98 to 99 °C. As for `CSc1nccc(-c2cc(C)ccc2NC(=O)C(C)(C)C)n1`, the figure is 119 to 120 °C; as for `COC1=Cc2cc(Cl)ccc2C(O)(C2CCN(C)CC2)c2ccsc21` (configuration not stated), 223 to 227 °C; as for `CCCCCCNC(=O)C1CCCN1` (configuration not stated), 61 to 64 °C. As for `CC(NC(=O)c1ccccc1I)C(O)c1ccccc1` (configuration not stated), the figure is 129 to 130 °C; as for `COC(=O)c1ccc2cc(C(=O)c3cc(O)c4c(c3)C(C)(C)CCC4(C)C)ccc2c1`, 222 °C; as for `CC(=O)NC[C@H]1CN(c2ccc3c(c2)C[C@@H](C)N3C(=O)COC(C)=O)C(=O)O1`, 186 to 187 °C.

In the case of `O=C1NCC(Cc2ccccc2F)O1` (configuration not stated), the melting point lay within 113 to 114 °C.

As for `CCCNc1nc(C#N)c(C#N)nc1-c1ccc(C)cc1`, the melting point was in the range of 115 to 116 °C. With `CCOC(=O)c1cc2cc(NC(=O)OCc3ccccc3)ccc2nn1`, the melting point is 205 °C. The result for `CC(F)(F)c1cccc(C[C@@H](NC(=O)c2ccc(F)c3ccccc23)[C@@H](O)c2ccc(F)cc2)c1` (racemic) reads 182 to 183 °C. Regarding `COC1=C(c2ccccc2)C(CCC(=O)O)OC1=O` (configuration not stated), the melting point lay within 126 to 127 °C. The result for `Cn1cc(C=O)c2c3sc4ccccc4c3ccc21` reads 224 °C; that for `Cc1ccc(C)c(C(CO)c2ccc(C(C)C)cc2)c1O` (configuration not stated), 88 to 89 °C. As for `COc1ccc(C(=O)c2cc(F)ccc2F)c(O)c1Cl`, the figure is 178 to 180 °C. As for `O=C1OCc2c1cc1ccc(Cl)cc1c2-c1ccc(Cl)cc1`, the figure is 205 to 207 °C; as for `Cc1cc(-c2nc3cccnn3c2-c2ccnc(NC(=O)c3ccc(OC(F)(F)F)cc3)c2)ccc1F`, 225 to 226 °C; as for `COc1ccc(S(=O)(=O)N2CCc3cccc(-c4ccc(C=O)cc4)c32)cc1`, 152 to 153 °C. In turn, `COC(=O)c1cc2c(C)ccc(C)c2n1C(=O)OC` had a melting point of 75 to 80 °C. The result for `CCOC(=O)C(C)Oc1ccc(N(C)c2cnc3cc(Cl)c(Cl)cc3n2)cc1` (configuration not stated) reads 79 °C; that for `CN(C)CCNC(=O)Cc1ccc(OCc2ccc(-c3ccccc3)cc2)cc1`, 160 to 161 °C; that for `Oc1ccc(-c2nn(-c3ccc(Br)cc3)c3cc(O)ccc23)c(O)c1`, 246 °C. Consider `COc1ccc2[nH]cc(C=C3OC(=O)N(Cc4cc(C(F)(F)F)cc(C(F)(F)F)c4)C3=O)c2c1`, for which the melting point was 147 to 149 °C. `COc1cccc2c(OCc3ccc(C(C)C)cc3)ccc(C=NNC(=O)c3ccc(O)c(Cl)c3)c12`: the melting point is > 250 °C. The result for `CN(C)c1ccc(NC(=S)NCC(C)(C)C)cc1` reads 174 to 176 °C; that for `CC(C)(C)OC(=O)Nc1sc(-c2cccnc2)nc1C(F)(F)F`, 145 to 147 °C.

Compound `O=C1c2ccc(Cl)cc2CC1(F)Br` (configuration not stated) registered a melting point of 104 to 105 °C. Turning to `COC(=O)c1sc(-n2cccn2)cc1O`, the melting point was in the range of 162 to 164 °C.

For the compound `Cc1ccc(OCc2ccccc2)c2cnn(Cc3ccccc3)c12`, the melting point lay within 92 to 93 °C. `COc1ccc(-c2c3cccc(C(F)(F)F)c3nn2CC2CCCCC2)c(OC)c1` yielded a melting point of 156 to 157 °C. The result for `CS(=O)(=O)c1ccc(-c2cnn(CC(F)(F)F)c(=O)c2OC2CCCCC2)cc1` reads 129 to 130 °C; that for `CCCCCCCCCC(=O)Oc1ccc(/C=C2/C(=O)Nc3cc(OC)c(OC)cc32)cc1`, 138 to 140 °C.

As for `O=C(Nc1c(C(O)(C(F)(F)F)C(F)(F)F)ccc2ccccc12)c1cccnc1`, the melting point is 214 to 215 °C. The result for `COCC(OC(C)=O)C1CC(OC(C)=O)C2(C)CCC3C(CCC4CC(=O)CC(C)C43C)C12` (configuration not stated) reads 149 to 150 °C; that for `CN1C(=O)CCC(C)(C)c2cc(NC(=O)c3ccc(C(=O)O)cc3)ccc21`, > 275 °C. As for `CCCCCCCCC(=O)Oc1ccc(-c2ccc(C#N)cc2)cc1`, the figure is 43.2 to 43.6 °C; as for `C[C@H]1CCCN(C(=O)[C@H]2Cc3cc(N4CCCCC4)ccc3N2c2cccnn2)C1`, 226 to 228 °C; as for `Nc1cc(OC(F)(F)C(F)Cl)c(OC(F)(F)C(F)Cl)cc1N` (configuration not stated), 58 to 60 °C. As for `CC1(C(=O)c2c[nH]c3ncc(-c4cccc(N5CCN(C(=O)CC#N)CC5)c4)nc23)CCCCC1`, the figure is 214 to 216 °C; as for `COc1cc(CN2CCc3cc(OCc4ccccc4)c(OC)cc3C2=O)cc(OC)c1`, 82 to 83 °C; as for `Cc1ccc(C(=O)N[C@@H](COC(C)(C)C)NC(=S)Nc2cccc([N+](=O)[O-])c2)cc1`, 169 to 171 °C. Consider `CCCOC(=O)c1ccc(CCCCOCCCCCNCC(O)c2ccc(O)c(NS(C)(=O)=O)c2)cc1` (configuration not stated), for which the melting point was 74 to 76 °C.
